Tests used:
[1] = molecular target: T1, HLA-B*57:01 (Homo sapiens, UniProt P01889, D201E/D98Y/E176V/E187L/E204Q/E69M/E70A/G107R/I90N/K202T/L105A/L119I/N104I/N87E/Q89R/Q94S/R106L/R155S/R180L/R86G/S101N/S121V/S35A/S48A/T118I/V36M/Y140S/Y91M); details: ref [20]–[22]; cited from earlier work
[2] = molecular target: T1, HLA-B*57:01; details: 721.220.B*57:01 +/- tapasin, 60 µM abacavir 20 hrs, Brefeldin A 0-6 hrs
[3] = tested on: C1R.B*57:01 cells; assay: Cellular proteome comparison by label free quantitation LC-MS/MS; assay type: cell-based, human; details: 35 µM abacavir, 48 h, 2,306 proteins, 5% FDR
[4] = molecular target: T1, HLA-B*57:01; assay: LC-MRM-MS quantitation of HLA ligands and co-purified abacavir from abacavir treated C1R.B*57:01 cells; assay type: cell-based; details: C1R.B*57:01, 35 µM abacavir
[5] = molecular target: T1, HLA-B*57:01; details: 60 µM abacavir
[6] = tested on: abacavir responsive CD8+ T cells; assay: Intracellular cytokine staining of abacavir responsive CD8+ T cells stimulated with abacavir treated C1R.B*57:01; assay type: cell-based, human; details: 35 µM abacavir 0-30 h, three T cell lines
Protocol: Stimulator PBMCs were subsequently added to responder PBMC at a 2:1 responder:stimulator ratio and the final volume of culture made up to 2 ml with RF10. Cells were incubated at 37°C, 5% CO2 and fed with fresh media as required to sustain cell outgrowth. On day 5 of culture, cell media were supplemented with rhIL-2 (Cetus) at 20 U/ml and maintained at this concentration thereafter. […] C1R.B*57:01 were mixed with 1 × 10^5 T cells at a 1:2 ratio in a volume of 200 μl fresh RH10. […] Sigma-Aldrich) was added to a final concentration of 10 μg/ml and incubated a further 4 h. Cells were stained with anti-CD4-PE [clone RPA-T4, Becton Dickinson (BD) Biosciences, USA] and anti-CD8-PerCP-Cy™5.5 (clone SK1, BD Biosciences, 25 min, 4°C), fixed with 1% PFA/PBS (20 min, room temperature), washed in PBS, then permeabilised with 0.3% saponin (Sigma-Aldrich) in PBS containing anti-Interferon-γ (IFNγ)-PE-Cy™7 (clone B27, BD Biosciences) and anti-tumour necrosis factor (TNF)-PE-V450 (clone Mab11, BD Biosciences), and acquired by flow cytometry using an LSR II flow cytometer and BD […]™ software (BD). The percentage of CD8^+ T cells producing IFNγ and TNF was determined via analysis using FlowJo software (BD).

[7] = molecular target: T1, HLA-B*57:01; details: 721.220.B*57:01 cells, 60 µM abacavir, 37 and 50°C vs 4°C

In the case of `Nc1nc(NC2CC2)c2ncn([C@H]3C=C[C@@H](CO)C3)c2n1` [abacavir], the “Odds ratio of hypersensitivity reaction with HLA-B*57:01” value [1] is given as greater than 500, the “Effect on expression level and stability of cell surface HLA-B*57:01” value [2] is given as “did not significantly alter either the expression level or the stability” and the “Change in protein expression of the cellular proteome” value [3] is given as “no protein showed significant changes in expression”. For the same molecule, the “Time of abacavir treatment after which changes in the immunopeptidome were evident” value [4] was 2 h, the “Co-purification of HLA-B*57:01-bound abacavir over the time course” value ([4]; 0-16 h) was “increasing amounts” and the “Effect on HLA-B*57:01 maturation (Endo-H resistance), tapasin-reconstituted” value ([5]; 721.220.B*57:01.tapasin cells) was “unaffected”. For the same molecule, the “Effect on HLA-B*57:01 maturation (Endo-H resistance), tapasin absent” value ([5]; 721.220.B*57:01 cells) was “did not significantly alter this pattern of biogenesis”, the “Immunogenicity of abacavir treated antigen presenting cells (IFNγ and/or TNF production by CD8+ T cells)” value [6] was “increase in antigen presenting cell immunogenicity was observed over the first 12 h” and the “Effect on thermal stability profile of HLA-B*57:01, tapasin absent” value [7] was “no significant impact on the thermal stability profile”.
